Ki data for six compounds are collected here from ChEMBL document CHEMBL1130717, “Tricyclic ureas: a new class of HIV-1 protease inhibitors” (Bioorg Med Chem Lett, 1998).

In the test the target is Human immunodeficiency virus type 1 protease (Human immunodeficiency virus 1, UniProt Q72874). Put plainly: Compound was tested for the inhibition of HIV-1 protease by assaying the cleavage of a fluorescent peptide using HPLC.
One may read the Ki as a dissociation constant, usually derived from enzyme kinetics or from competition with a known ligand. Turning to `O=C1N(Cc2ccc3[nH]ncc3c2)[C@H](Cc2ccccc2)[C@H](O)[C@H](O)[C@]23CC[C@H]([C@H](OCc4ccccc4)C2)N13`, the Ki amounted to 9 nM. This counts as single-digit nanomolar.

Take `O=C1N(Cc2ccccc2)[C@H](Cc2ccccc2)[C@@H](O)[C@H](O)[C@]23CC[C@H](CC2)N13`: the Ki was determined as 6300 nM.

`O=C1N[C@H](Cc2ccccc2)[C@@H](O)[C@H](O)[C@]23CC[C@H](CC2)N13`: affinity was put at a Ki of 21000 nM.

On to `O=C1N(Cc2ccc3[nH]ncc3c2)[C@H](Cc2ccccc2)[C@H](O)[C@H](O)[C@]23CC[C@H](CC2)N13`, for which affinity was put at a Ki of 2300 nM.

Compound `O=C1N(Cc2ccccc2)[C@H](Cc2ccccc2)[C@H](O)[C@H](O)[C@]23CC[C@H](CC2)N13` yielded a Ki of 2400 nM.

`O=C1N(Cc2ccccc2)[C@H](Cc2ccccc2)[C@H](O)[C@H](O)[C@]23CC[C@H]([C@H](OCc4ccccc4)C2)N13` displayed a Ki of 750 nM.
